Reference: patent US20230172206A1 (BASF SE, priority 2020, published 2023)

What was measured:
[1] = system: Phakopsora pachyrhizi (F129L); experiment: Protective control of soybean rust on soybeans (PHAKPA P6); type: in vivo; settings: for % PHAKPA (F129L) Disease level P6 at 4 ppm: protective P6, 4 ppm; for % PHAKPA (F129L) Disease level P6 at 4 ppm / % PHAKPA (F129L) Disease level P6 at 16 ppm: soybean rust F129L isolate; for % PHAKPA (F129L) Disease level P6 at 16 ppm: protective P6, 16 ppm
[2] = system: Phakopsora pachyrhizi (F129L); experiment: Protective control of soybean rust on soybeans (PHAKPA P2); type: in vivo; settings: for % PHAKPA (F129L) Disease level P2 at 4 ppm: protective P2, 4 ppm; for % PHAKPA (F129L) Disease level P2 at 4 ppm / % PHAKPA (F129L) Disease level P2 at 16 ppm: soybean rust F129L isolate; for % PHAKPA (F129L) Disease level P2 at 16 ppm: protective P2, 16 ppm

SMILES | % PHAKPA (F129L) Disease level P6 at 4 ppm [1] [%] | % PHAKPA (F129L) Disease level P6 at 16 ppm [1] [%] | PHAKPA (F129L) Disease level (%) P6 at 16 ppm ([1]; protective, inoculation six days after spraying, 16 ppm, % diseased leaf area) [%] | % PHAKPA (F129L) Disease level P2 at 4 ppm [2] [%] | % PHAKPA (F129L) Disease level P2 at 16 ppm [2] [%] | PHAKPA (F129L) Disease level (%) P2 at 16 ppm ([2]; protective, inoculation 2 days after spraying, 16 ppm, % diseased leaf area) [%]
CO/C=C(/C(=O)OC)c1cccc(C)c1CO/N=C(\C)c1ccccc1C(F)(F)F [compound 244] | 15 | 2 | 2 | 14 | 0 | 0
CNC(=O)/C(=N/OC)c1cccc(C)c1CO/N=C(\C)c1cc(Cl)ccc1C(F)(F)F [compound 245] | 13 | 2 | – | 28 | 8 | –
CO/N=C(/C(=O)OC)c1cccc(C)c1CO/N=C(\C)c1cc(Cl)c(F)c(Cl)c1 [compound 246] | 77 | 7 | – | 40 | 15 | –
CNC(=O)/C(=N/OC)c1cccc(C)c1CO/N=C(\C)c1cc(Cl)c(F)c(Cl)c1 [compound 247] | 33 | 8 | – | 16 | 2 | –
CNC(=O)/C(=N/OC)c1cccc(C)c1CO/N=C(\C)c1cc(F)ccc1Br [compound 248] | 30 | 2 | – | 33 | 2 | –
CO/N=C(/C(=O)OC)c1cccc(C)c1CO/N=C(\C)c1cc(F)ccc1C(F)(F)F [compound 249] | 90 | 43 | – | 87 | 37 | –
CO/N=C(/C(=O)OC)c1cccc(C)c1CO/N=C(\CC(F)(F)F)c1cccc(C(F)(F)F)c1 [compound 250] | 90 | 80 | – | 90 | 90 | –
CO/N=C(/C(=O)OC)c1cccc(C)c1CO/N=C(\C)c1cc(Cl)ccc1C(F)(F)F [compound 251] | 80 | 80 | – | 80 | 80 | –
CNC(=O)/C(=N/OC)c1cccc(C)c1CO/N=C(\C)c1ccccc1OC(F)F [compound 252] | 87 | 32 | – | 50 | 3 | –
CO/N=C(/C(=O)OC)c1cccc(C)c1CO/N=C(\C)c1ccccc1OC(F)F [compound 253] | 100 | 57 | – | 100 | 87 | –
CO/N=C(/C(=O)OC)c1cccc(C)c1CO/N=C(\C)c1cc(F)ccc1Br [compound 254] | 100 | 100 | – | 100 | 77 | –
CNC(=O)/C(=N/OC)c1cccc(C)c1CO/N=C(\CC(F)(F)F)c1cc(Cl)cc(Cl)c1 [compound 255] | 100 | 87 | – | 97 | 83 | –
CO/N=C(/C(=O)OC)c1cccc(C)c1CO/N=C(\C)c1ccc(F)cc1Cl [compound 256] | 70 | 20 | – | 50 | 18 | –
CO/N=C(/C(=O)OC)c1cccc(C)c1CO/N=C(\C)c1ccc(Br)cc1C(F)(F)F [compound 257] | 100 | 57 | – | 93 | 35 | –
CNC(=O)/C(=N/OC)c1cccc(C)c1CO/N=C(\C)c1ccc(Br)cc1C(F)(F)F [compound 258] | 73 | 8 | – | 32 | 7 | –
CO/N=C(/C(=O)OC)c1cccc(C)c1CO/N=C(\C)c1ccc(OC(F)(F)F)cc1C [compound 259] | 93 | 40 | – | 80 | 17 | –
CNC(=O)/C(=N/OC)c1cccc(C)c1CO/N=C(\C)c1ccc(F)cc1C(F)(F)F [compound 260] | 22 | 0 | – | 22 | 0 | –
CNC(=O)/C(=N/OC)c1cccc(C)c1CO/N=C(\C)c1ccc(OC(F)(F)F)cc1C [compound 261] | 87 | 32 | – | 70 | 9 | –
CNC(=O)/C(=N/OC)c1cccc(C)c1CO/N=C(\C)c1ccc(F)cc1Cl [compound 262] | 47 | 4 | – | 63 | 1 | –
CO/N=C(/C(=O)OC)c1cccc(C)c1CO/N=C(\C)c1ccc(F)cc1C(F)(F)F [compound 263] | 73 | 22 | – | 80 | 15 | –
CO/N=C(/C(=O)OC)c1cccc(C)c1CO/N=C(\C)c1ccc(F)cc1F [compound 266] | 90 | 43 | – | 67 | 18 | –
CNC(=O)/C(=N/OC)c1cccc(C)c1CO/N=C(\C)c1ccc(F)cc1F [compound 267] | 10 | 4 | – | 2 | 0 | –
CO/N=C(/C(=O)OC)c1cccc(C)c1CO/N=C(\C)c1ccc(OC(F)(F)F)cc1Cl [compound 268] | 60 | 17 | – | 63 | 6 | –
CO/N=C(/C(=O)OC)c1cccc(C)c1CO/N=C(\C)c1ccc(OC(F)(F)F)cc1F [compound 269] | 18 | 0 | – | 5 | 0 | –
CNC(=O)/C(=N/OC)c1cccc(C)c1CO/N=C(\C)c1ccc(OC(F)(F)F)cc1F [compound 270] | 0 | 1 | – | 3 | 0 | –
CNC(=O)/C(=N/OC)c1cccc(C)c1CO/N=C(\C)c1ccccc1COC [compound 277] | 100 | 100 | – | 100 | 60 | –
CNC(=O)/C(=N/OC)c1cccc(C)c1CO/N=C(\C)c1cc(C)ccc1C [compound 278] | 90 | 93 | – | 90 | 60 | –
CNC(=O)/C(=N/OC)c1cccc(C)c1CO/N=C(\C)c1cccc(N2CC(F)(F)C2)c1 [compound 282] | – | 18 | – | – | 15 | –
CO/N=C(/C(=O)OC)c1cccc(C)c1CO/N=C(\C)c1c(F)cccc1Cl [compound 283] | 87 | 22 | – | 83 | 30 | –
CNC(=O)/C(=N/OC)c1cccc(C)c1CO/N=C(\C)c1c(F)cccc1Cl [compound 284] | 62 | 34 | – | 63 | 44 | –
